Data from PMC12679550 (ACS Chemical Neuroscience, 2025).
Entries after “also recorded” stand apart in the source; their conditions may differ. Where two headings read alike, the source gives them in different places.

Legend:
[1] = system: pERK in nontransfected HEK293 cells; assay: ERK phosphorylation in nontransfected, knockout and antagonist-cotreated HEK293 cells; type: cell-based, human
Procedure: Cells were serum-starved for 75 min and treated with ligands in 1 mL of fresh DMEM in the absence of serum as described in the figure legends. Cells were washed three times with ice-cold phosphate-buffered saline, lysed on ice in Radio-Immunoprecipitation Assay buffer, centrifuged to clarify the supernatant, normalized to protein concentration, and boiled in Laemmli sample buffer. Following sodium dodecyl sulfate–polyacrylamide gel electrophoresis, gels were transferred, blocked in 5% BSA and incubated with 1:1000 rabbit phospho-ERK1/2 (#9101, Cell Signaling Technology, Danvers, MA) and imaged with enhanced chemiluminescence (ECL). Blots were stripped and reprobed with rabbit ERK1/2 (#9102, Cell Signaling Technology) antibody and imaged with ECL to assess protein loading.

D1-dopamine receptors = target: T1, D1-dopamine receptors (Homo sapiens, UniProt P21728); assay: Eurofins Cerep radioligand binding screen; conditions: 10 μM
T1 construct: Eurofins Cerep; host or cells: cell membrane homogenates
T1 sequence (P21728 whole entry): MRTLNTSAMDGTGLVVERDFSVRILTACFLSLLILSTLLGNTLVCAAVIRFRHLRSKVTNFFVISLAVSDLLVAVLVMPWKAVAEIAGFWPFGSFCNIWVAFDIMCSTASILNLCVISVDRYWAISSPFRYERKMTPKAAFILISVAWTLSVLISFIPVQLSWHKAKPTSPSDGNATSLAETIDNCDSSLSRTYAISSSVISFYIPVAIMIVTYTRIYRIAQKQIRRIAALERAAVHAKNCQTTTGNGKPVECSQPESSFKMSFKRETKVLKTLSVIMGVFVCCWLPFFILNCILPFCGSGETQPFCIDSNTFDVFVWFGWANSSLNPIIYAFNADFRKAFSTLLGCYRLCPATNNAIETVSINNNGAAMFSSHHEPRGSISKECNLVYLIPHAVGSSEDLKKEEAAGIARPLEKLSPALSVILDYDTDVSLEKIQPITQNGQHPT
Procedure: (§1) The compounds were screened at each target once, in duplicate, at 100 nM and 10 μM. […] The assay was valid if the reliability criteria, K i or IC50 values within 1/2 Log of historical values, were met. Radioligand binding assay methods were as previously described with only minor modifications , (see table in Supplementary Figure S4 for radioligands, protein sources, and assay test conditions). Briefly, cell membrane homogenates were incubated with either an antagonist or agonist radioligand in the absence or presence of the test compound in a buffer. A specific unlabeled agonist or antagonist at the target determined nonspecific binding. Following incubation, the samples were filtered rapidly under vacuum through glass fiber filters presoaked in a buffer and rinsed several times with an ice-cold buffer using a 48-sample or 96-sample cell harvester. Using a scintillation cocktail, the filters were counted for radioactivity in a scintillation counter. Compound binding was calculated as a percent inhibition of the binding of the radioactively labeled ligand specific for each target. Preparatory methods for enzyme inhibition assays were similar to radioligand binding assays. These assays involved using a known substrate, stimulus, and/or tracer, and detection methods included LANCE, fluorimetry, photometry, luminescence, or scintillation counting (see table in Supplementary Figure S4). Results of the screening assays showing an inhibition or stimulation higher than 50% were designated “hits” and considered to represent significant effects of the test compounds.

D2-dopamine receptors = target: T2, D2-dopamine receptors (Homo sapiens, UniProt P14416); assay: Eurofins Cerep radioligand binding screen; conditions: 10 μM
T2 construct: Eurofins Cerep; host or cells: cell membrane homogenates
T2 sequence (P14416 whole entry): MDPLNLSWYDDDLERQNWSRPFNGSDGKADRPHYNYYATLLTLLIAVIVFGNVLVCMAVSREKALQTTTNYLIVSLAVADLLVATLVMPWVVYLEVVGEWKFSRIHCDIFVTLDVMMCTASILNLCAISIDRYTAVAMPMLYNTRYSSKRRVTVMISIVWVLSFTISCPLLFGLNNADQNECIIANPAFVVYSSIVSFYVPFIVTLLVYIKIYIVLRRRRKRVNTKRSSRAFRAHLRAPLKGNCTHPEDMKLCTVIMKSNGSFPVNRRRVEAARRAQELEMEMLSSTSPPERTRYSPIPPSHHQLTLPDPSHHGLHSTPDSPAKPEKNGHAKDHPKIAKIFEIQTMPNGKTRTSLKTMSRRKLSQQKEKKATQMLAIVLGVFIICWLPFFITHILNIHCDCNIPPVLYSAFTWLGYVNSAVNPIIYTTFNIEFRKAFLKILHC
Procedure: as §1

D3-dopamine receptors = target: T3, D3-dopamine receptors (Homo sapiens, UniProt P35462); assay: Eurofins Cerep radioligand binding screen; conditions: 10 μM
T3 construct: Eurofins Cerep; host or cells: cell membrane homogenates
T3 sequence (P35462 whole entry): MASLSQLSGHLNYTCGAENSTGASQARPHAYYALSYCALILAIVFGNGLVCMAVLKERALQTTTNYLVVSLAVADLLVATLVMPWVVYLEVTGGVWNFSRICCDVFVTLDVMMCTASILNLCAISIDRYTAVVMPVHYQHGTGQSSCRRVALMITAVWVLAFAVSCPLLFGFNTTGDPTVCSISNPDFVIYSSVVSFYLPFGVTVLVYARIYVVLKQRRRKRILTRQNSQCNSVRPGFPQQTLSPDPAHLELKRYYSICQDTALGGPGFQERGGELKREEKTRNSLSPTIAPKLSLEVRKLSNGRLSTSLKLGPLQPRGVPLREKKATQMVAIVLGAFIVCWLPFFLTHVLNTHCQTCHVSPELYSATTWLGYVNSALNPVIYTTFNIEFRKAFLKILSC
Procedure: as §1

L-type Ca2+ channels = assay: Eurofins Cerep radioligand binding screen; conditions: rat cerebral cortex; Figure S6
Procedure: as §1

N-type Ca2+ channels = target: T4, N-type Ca2+ channels (Rattus norvegicus, UniProt Q02294); assay: Eurofins Cerep radioligand binding screen; conditions: rat cerebral cortex; Figure S6
T4 construct: Eurofins Cerep (contract screen)
Procedure: as §1

hERG potassium channels = target: T5, hERG potassium channels (Homo sapiens, UniProt Q12809); assay: Eurofins Cerep radioligand binding screen; conditions: 10 μM
T5 construct: Eurofins Cerep; host or cells: cell membrane homogenates
T5 sequence (Q12809 whole entry): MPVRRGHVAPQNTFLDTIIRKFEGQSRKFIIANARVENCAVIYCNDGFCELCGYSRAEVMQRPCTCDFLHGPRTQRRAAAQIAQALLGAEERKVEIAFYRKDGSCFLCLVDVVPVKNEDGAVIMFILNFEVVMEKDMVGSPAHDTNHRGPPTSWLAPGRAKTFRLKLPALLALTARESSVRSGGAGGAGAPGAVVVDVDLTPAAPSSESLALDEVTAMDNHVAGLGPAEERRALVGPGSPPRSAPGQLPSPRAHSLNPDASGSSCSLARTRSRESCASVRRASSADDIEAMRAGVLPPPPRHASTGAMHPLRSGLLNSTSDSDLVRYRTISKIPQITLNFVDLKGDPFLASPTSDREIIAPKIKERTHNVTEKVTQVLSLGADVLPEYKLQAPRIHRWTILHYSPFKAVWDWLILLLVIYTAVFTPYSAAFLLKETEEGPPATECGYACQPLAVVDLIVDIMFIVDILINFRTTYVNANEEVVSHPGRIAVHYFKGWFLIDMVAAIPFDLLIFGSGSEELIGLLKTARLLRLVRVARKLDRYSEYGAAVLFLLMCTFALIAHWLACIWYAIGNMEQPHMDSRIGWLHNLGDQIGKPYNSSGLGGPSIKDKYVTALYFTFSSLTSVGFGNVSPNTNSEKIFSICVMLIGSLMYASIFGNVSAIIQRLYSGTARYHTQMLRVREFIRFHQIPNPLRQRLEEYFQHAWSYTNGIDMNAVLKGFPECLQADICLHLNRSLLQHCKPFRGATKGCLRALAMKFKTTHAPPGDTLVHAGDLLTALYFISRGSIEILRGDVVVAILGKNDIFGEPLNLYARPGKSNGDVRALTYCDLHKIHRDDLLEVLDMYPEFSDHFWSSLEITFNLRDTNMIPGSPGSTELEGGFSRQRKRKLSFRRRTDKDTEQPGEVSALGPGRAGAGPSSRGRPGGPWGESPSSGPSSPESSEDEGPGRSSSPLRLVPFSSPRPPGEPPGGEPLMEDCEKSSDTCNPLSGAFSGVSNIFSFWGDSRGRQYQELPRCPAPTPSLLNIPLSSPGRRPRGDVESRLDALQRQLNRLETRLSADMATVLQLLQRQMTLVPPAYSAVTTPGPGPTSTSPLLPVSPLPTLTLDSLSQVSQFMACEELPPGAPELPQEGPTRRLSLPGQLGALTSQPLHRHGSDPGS
Procedure: as §1

serotonin transporter = target: T6, serotonin transporter (Homo sapiens, UniProt P31645); assay: Eurofins Cerep radioligand binding screen; conditions: 10 μM
T6 construct: Eurofins Cerep; host or cells: cell membrane homogenates
T6 sequence (P31645 whole entry): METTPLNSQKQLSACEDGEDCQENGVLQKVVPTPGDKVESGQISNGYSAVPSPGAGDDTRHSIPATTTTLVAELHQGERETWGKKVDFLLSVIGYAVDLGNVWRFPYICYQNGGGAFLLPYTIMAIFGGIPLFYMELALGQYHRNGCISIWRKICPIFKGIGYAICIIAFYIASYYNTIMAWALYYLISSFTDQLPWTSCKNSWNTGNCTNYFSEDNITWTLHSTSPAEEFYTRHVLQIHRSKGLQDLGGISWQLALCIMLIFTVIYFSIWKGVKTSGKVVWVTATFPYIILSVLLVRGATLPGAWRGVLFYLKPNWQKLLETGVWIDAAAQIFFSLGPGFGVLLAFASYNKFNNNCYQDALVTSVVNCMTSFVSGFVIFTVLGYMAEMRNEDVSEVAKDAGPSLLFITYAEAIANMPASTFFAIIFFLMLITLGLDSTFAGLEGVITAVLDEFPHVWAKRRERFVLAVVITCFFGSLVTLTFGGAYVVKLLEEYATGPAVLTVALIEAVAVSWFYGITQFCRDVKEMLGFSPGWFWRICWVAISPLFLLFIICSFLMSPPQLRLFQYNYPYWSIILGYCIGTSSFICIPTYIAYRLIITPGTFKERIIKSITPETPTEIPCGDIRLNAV
Procedure: as §1

[2] = system: voltage-gated sodium channels; assay: Eurofins Cerep radioligand binding screen; conditions: 10 μM
Procedure: as §1

β2-adrenoceptors = target: T7, β2-adrenoceptors (Homo sapiens, UniProt P07550); assay: Eurofins Cerep radioligand binding screen; conditions: 10 μM
T7 construct: Eurofins Cerep; host or cells: cell membrane homogenates
Procedure: as §1

rat α2AR = target: T8, rat α2AR (Rattus norvegicus, UniProt P22909); conditions: agonist mode; HEK293 cells; Figure S2
T8 sequence (P22909 1-465): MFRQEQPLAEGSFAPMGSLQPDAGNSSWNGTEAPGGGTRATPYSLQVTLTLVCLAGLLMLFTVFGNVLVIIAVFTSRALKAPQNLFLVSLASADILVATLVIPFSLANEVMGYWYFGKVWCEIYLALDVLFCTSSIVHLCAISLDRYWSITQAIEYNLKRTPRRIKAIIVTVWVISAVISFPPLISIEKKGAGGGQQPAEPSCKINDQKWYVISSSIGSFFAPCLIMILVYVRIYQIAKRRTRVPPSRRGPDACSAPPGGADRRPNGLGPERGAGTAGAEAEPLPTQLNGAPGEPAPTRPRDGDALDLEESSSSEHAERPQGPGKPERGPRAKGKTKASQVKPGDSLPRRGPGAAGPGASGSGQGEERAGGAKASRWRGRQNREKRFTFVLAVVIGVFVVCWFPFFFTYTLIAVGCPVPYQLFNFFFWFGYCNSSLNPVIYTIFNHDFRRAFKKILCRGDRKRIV

α2AR [3] = target: T9, α2AR (Homo sapiens, UniProt P08913)
T9 sequence (P08913 1-465): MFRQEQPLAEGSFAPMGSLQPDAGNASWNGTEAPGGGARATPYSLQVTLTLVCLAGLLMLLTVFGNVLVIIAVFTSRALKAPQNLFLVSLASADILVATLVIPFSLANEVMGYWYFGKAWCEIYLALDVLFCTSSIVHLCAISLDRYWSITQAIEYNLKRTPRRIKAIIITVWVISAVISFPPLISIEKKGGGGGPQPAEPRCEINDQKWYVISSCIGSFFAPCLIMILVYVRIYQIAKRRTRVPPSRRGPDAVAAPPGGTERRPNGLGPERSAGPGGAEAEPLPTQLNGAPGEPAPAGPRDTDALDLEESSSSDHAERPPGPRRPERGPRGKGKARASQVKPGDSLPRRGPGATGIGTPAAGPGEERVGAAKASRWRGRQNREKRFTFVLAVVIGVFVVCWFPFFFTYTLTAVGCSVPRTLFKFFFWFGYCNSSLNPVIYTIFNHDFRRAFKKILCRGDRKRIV

α2AR [4] = target: T9, α2AR; remark: listed apart in the source
human α2BRs = human α2BRs (Homo sapiens, UniProt P18089); conditions: 10 μM screen
Sequence of human α2BRs (P18089 whole entry): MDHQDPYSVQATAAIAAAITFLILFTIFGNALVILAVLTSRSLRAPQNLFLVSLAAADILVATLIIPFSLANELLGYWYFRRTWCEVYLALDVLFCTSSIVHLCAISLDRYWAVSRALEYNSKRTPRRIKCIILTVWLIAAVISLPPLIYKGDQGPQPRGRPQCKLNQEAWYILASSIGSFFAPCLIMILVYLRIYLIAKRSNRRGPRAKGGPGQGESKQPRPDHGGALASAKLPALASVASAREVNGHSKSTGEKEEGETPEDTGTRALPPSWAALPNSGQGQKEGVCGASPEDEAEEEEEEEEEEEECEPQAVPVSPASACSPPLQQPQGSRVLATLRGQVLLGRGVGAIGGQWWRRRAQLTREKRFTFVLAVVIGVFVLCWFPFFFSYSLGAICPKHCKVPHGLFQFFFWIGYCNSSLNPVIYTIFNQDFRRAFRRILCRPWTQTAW

mitragynine
pERK-stimulating effect in Gαq/11 knockout HEK293 cells ([1]; 1 μM, 5 min, vs CRISPR scrambled): abolished
pERK-stimulating effect with 100 nM atipamezole cotreatment ([1]; HEK293): did not affect
pERK-stimulating effect with 100 nM prazosin cotreatment ([1]; HEK293, CLON and ISO 1 μM, mitragynine 1 μM): abolished
Inhibition of radioligand binding, D1-dopamine receptors (D1-dopamine receptors): ~73%
Inhibition of radioligand binding, D2-dopamine receptors (D2-dopamine receptors): ~70%
Inhibition of radioligand binding, D3-dopamine receptors (D3-dopamine receptors): ~57%
Affinity at L-type Ca2+ channels (L-type Ca2+ channels): no appreciable affinity
Affinity at N-type Ca2+ channels (N-type Ca2+ channels): no appreciable affinity
Inhibition of radioligand binding, hERG potassium channels (hERG potassium channels): ~51%
Inhibition of radioligand binding, serotonin transporter (serotonin transporter): ~51%
Inhibition of radioligand binding, voltage-gated sodium channels [2]: ~71%
Inhibition of specific radioligand binding, β2-adrenoceptors (β2-adrenoceptors): > 60%
Effect on forskolin-induced cAMP, rat α2AR in HEK293 (rat α2AR): no significant functional effects
Kb (α2AR [3]; read-out: Kb, antagonist, β-arrestin, antagonist mode vs EC80 (0.01 μM) UK 14,304, Cheng–Prusoff): 5.01 µM
β-arrestin2 recruitment, agonist mode (α2AR [3]; α2AR-expressing CHO-K1 cells): did not recruit β-arrestin2
Activation of α2AR-Gαs(short) (α2AR [4]; Figure S1): did not activate α2AR–Gαs; also recorded: no effect
Activation of the seven Gαi/o-protein subtypes coupled to α2AR (α2AR [4]; concentrations up to 30 μM): did not activate any of the seven Gαi/o-protein subtypes
Activation of Gαq or Gα11 via α2ARs (α2AR [4]; data not shown): no effect
Kb (α2AR [4]; read-out: Kb, antagonist, αi1, α2AR-Gαi1, antagonism of clonidine, Gaddum-Schild): 5.65 µM
EC50, αgust (α2AR [4]; α2AR-Gαgust): inactive
EC50, αi2 (α2AR [4]; α2AR-Gαi2): inactive
EC50, αi3 (α2AR [4]; α2AR-Gαi3): inactive
EC50, αoA (α2AR [4]; α2AR-GαoA): inactive
EC50, αoB (α2AR [4]; α2AR-GαoB): inactive
EC50, αz (α2AR [4]; α2AR-Gαz): inactive
Activation of Gαi/o subtypes coupled to α2BRs (human α2BRs): no significant activity
